Data set [1] concerns carrageenin oedema, inflamed paw. In words: Carrageenin oedema of the rat paw (anti-inflammatory action, paw size/volume). The format is in vivo, male Wistar rats. As to conditions: oral, Tables 1, 2 and 3.
The subject of data set [2] is pain threshold in the inflamed paw (carrageenin oedema). In words: Pain threshold under pressure of the inflamed (carrageenin) rat paw (analgesic action). Particulars: for Pain threshold - carrageenin oedema: Table 3.
Experimental: At intervals after the treatment, the size of the treated paw and its sensitivity to pain under pressure were evaluated.
The next data set is described as follows: clinical. Particulars: human, in vivo, po, Human blood level, single oral dose 500 mg D,L-lysine salt (Table 5) or equivalent 300 mg sodium salt (Table 6), serum, as free acid.
The next data set is described as follows: Solubility. The format is physicochemical.

Each structure is given as a SMILES string. Structures can show the parent of a compound that is named as a salt.

Experimental for clinical: The blood levels were then determined after 0.5, 1, 1.5, 2, 3, 4 and 5 hours.

For `CC(C)Cc1ccc(C(C)C(=O)O)cc1` (stereo not shown) [Example 3], in data set [1], the “Anti-inflammatory and analgesic action compared with free acid and phenyl-butazone” value was “as active as or more active than the equivalent dose of the corresponding free acid and is as effective as a double dose of phenyl-butazone”. Further, in data set [2] (i.v., doses of the order of 10 times less, Table 4), the “Analgesic action, intravenous, compared with free acid and phenyl-butazone” value was “clearly more active and quicker acting than both the free acid and phenyl-butazone”.
On to `CC(C)Cc1ccc(C(C)C(=O)[O-])cc1.[Na+]` (stereo not shown), for which, in the data set “clinical” (subject B), the concentration at 0.5 h was determined as 10500 ng/mL, the concentration at 1 h amounted to 16600 ng/mL, the concentration at 1.5 h worked out at 11000 ng/mL and the concentration at 2 h stood at 10300 ng/mL. Further, in “clinical” (subject B), the concentration at 3 h was determined as 3000 ng/mL, the concentration at 4 h amounted to 2700 ng/mL and the concentration at 5 h came out at 1400 ng/mL. Besides, in “clinical” (subject C), the concentration at 0.5 h was determined as 3800 ng/mL, the concentration at 1 h stood at 4500 ng/mL, the concentration at 1.5 h is 6000 ng/mL and the concentration at 2 h is 8700 ng/mL. Also, in “clinical” (subject C), the concentration at 3 h amounted to 8700 ng/mL, the concentration at 4 h stood at 9600 ng/mL and the concentration at 5 h turned out to be 4300 ng/mL. For the same molecule, in the data set “clinical” (subject D), the concentration at 0.5 h turned out to be 5500 ng/mL, the concentration at 1 h amounted to 6000 ng/mL, the concentration at 1.5 h came out at 7000 ng/mL and the concentration at 2 h was 16300 ng/mL. In “clinical” (subject D), the concentration at 3 h stood at 13600 ng/mL, the concentration at 4 h was found to be 7300 ng/mL and the concentration at 5 h was found to be 6900 ng/mL. Besides, in the data set “clinical” (subject E), the concentration at 0.5 h is 3300 ng/mL, the concentration at 1 h came to 9800 ng/mL, the concentration at 1.5 h is 8700 ng/mL and the concentration at 2 h stood at 7900 ng/mL. In the data set “clinical” (subject E), the concentration at 3 h came to 9600 ng/mL, the concentration at 4 h came out at 7000 ng/mL and the concentration at 5 h amounted to 5300 ng/mL. Further, in “clinical” (subject A), the concentration at 2 h amounted to 900 ng/mL, the concentration at 3 h stood at 1300 ng/mL, the concentration at 4 h stood at 4200 ng/mL and the concentration at 5 h was 6300 ng/mL. In the data set “clinical” (mean), the concentration at 0.5 h is 8300 ng/mL, the concentration at 1 h turned out to be 13600 ng/mL, the concentration at 1.5 h was 11600 ng/mL and the concentration at 2 h was found to be 12700 ng/mL. In “clinical” (mean), the concentration at 3 h stood at 10800 ng/mL, the concentration at 4 h turned out to be 7800 ng/mL and the concentration at 5 h was 5400 ng/mL.
`CC(C(=O)O)c1cccc(Oc2ccccc2)c1` (stereo not shown) [Example 12, arginine salt of 2-(3-phenoxy-phenyl)-propionic acid]: in the data set “Solubility”, the “Solubility in water” value is “moderately soluble in water”.
With `O=C(O)Cc1ccccc1Oc1ccc(Cl)cc1Cl` [Example 6, lysine salt of 2-(2,4-dichlorophenoxy)-phenyl-acetic acid], in the data set “Solubility”, the “Solubility in water” value is recorded as “water-soluble”.
The same measure, in the same setting: the result for `C=CCOc1ccc(CC(=O)O)cc1Cl` [Example 10, arginine salt of 2-(3-chloro-4-allyloxyphenyl)-acetic acid] reads “moderately soluble in water”.
Regarding `CC(C)Cc1ccc(C(C)C(=O)O)cc1` (stereo not shown) [Ibuprofen], the “Pain threshold - carrageenin oedema” value came to 101.0 ± 2.85 g in data set [2] (50 mg/kg p.o. (lysine salt: 30 as active substance), 0 hrs, control 101.7 ± 3.19, 50 mg/kg); 85.7 ± 4.05 g in data set [2] (50 mg/kg p.o. (lysine salt: 30 as active substance), 3 hrs, control 52.7 ± 2.00, **p = 0.01, 50 mg/kg); 70.7 ± 3.45 g in data set [2] (50 mg/kg p.o. (lysine salt: 30 as active substance), 5 hrs, control 51.3 ± 2.15, **p = 0.01, 50 mg/kg); 105.3 ± 3.10 g in data set [2] (100 mg/kg p.o. (lysine salt: 60 as active substance), 0 hrs, control 101.7 ± 3.19, 100 mg/kg); 104.3 ± 3.51 g in data set [2] (100 mg/kg p.o. (lysine salt: 60 as active substance), 3 hrs, control 52.7 ± 2.00, **p = 0.01, 100 mg/kg); 80.3 ± 5.66 g in data set [2] (100 mg/kg p.o. (lysine salt: 60 as active substance), 5 hrs, control 51.3 ± 2.15, **p = 0.01, 100 mg/kg). The “Pain threshold - carrageenin oedema” value in data set [2] (200 mg/kg p.o. (lysine salt: 120 as active substance), 0 hrs, control 101.7 ± 3.19, 200 mg/kg) was 101.0 ± 3.21 g; in data set [2] (200 mg/kg p.o. (lysine salt: 120 as active substance), 3 hrs, control 52.7 ± 2.00, **p = 0.01, 200 mg/kg), 119.7 ± 3.50 g; in data set [2] (200 mg/kg p.o. (lysine salt: 120 as active substance), 5 hrs, control 51.3 ± 2.15, **p = 0.01, 200 mg/kg), 85.7 ± 4.70 g.
Consider `CC(C)Cc1ccc(CC(=O)O)cc1` [Example 4, lysine salt of 2-(4-isobutyl-phenyl)-acetic acid], for which, in “Solubility”, the “Solubility in water” value is reported as “soluble in water”.
For `CC(C(=O)O)c1ccc(C2CCCCC2)cc1` (stereo not shown) [Example 11, arginine salt of 2-(4-cyclohexyl-phenyl)-propionic acid], the “Solubility in water” value in the data set “Solubility” is reported as “moderately soluble in water”.

The values above are taken from patent publication US4279926A, “Method of relieving pain and treating inflammatory conditions in warm-blooded animals” (priority 1974, dated 1981).
